Reference: patent US20150125407A1, “Vesicular Formulations, Uses and Methods” (Sequessome Technology Holdings Ltd, priority 2012, published 2015)

System: acne vulgaris
Assay: Use example 1: topical roaccutane alone or layered with Rossoseq gel in teenage acne vulgaris
Conditions: topically applied roaccutane alone; person

## CC1=C(/C=C/C(C)=C/C=C/C(C)=C\C(=O)O)C(C)(C)CCC1 [roaccutane]
  effect on acne vulgaris: did not have a significant effect
